Assay results as given in patent US20220289685A1, “ANTIMALARIAL HEXAHYDROPYRIMIDINE ANALOGUES” (UCB BIOPHARMA SRL, priority 2019, published 2022).
Structures can show the parent of a compound that is named as a salt.

These compounds were tested on Plasmodium falciparum 3D7 strain (assay: P. falciparum 3D7 asexual blood stage assay (SYBR green readout)). Conditions: Plasmodium falciparum, 3D7, Erythrocyte, 72 h.
Format: cell-based
Method in brief: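 P. falciparum 3D7 in A+ erythrocytes (5% haematocrit, 0.5% parasitaemia) exposed 72 h at 37 °C under 1% O2/3% CO2 to 20-point 1.5-fold titrations, 50,000–15 nM in 0.5% DMSO. SYBR green lysis overnight, fluorescence 485/528 nm; normalized to mefloquine and DMSO, EC50 from biphasic two-site fit.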
Work on `C[C@@H]1C[C@H](N2C(=N)N[C@](C)(c3cccc(NC(=O)c4ccccn4)c3Cl)CC2=O)CCO1` (relative stereo) [Example 6, N-(2-Chloro-3-{(4S)-2-imino-4-methyl-1-[(2R*,4R*)-2-methyl-tetrahydropyran-4-yl]-6-oxo-hexahydropyrimidin-4-yl}phenyl)-pyridine-2-carboxamide hydrochloride] yielded an IC50 of 33 nM. `C[C@@H]1C[C@H](N2C(=N)N[C@](C)(c3cccc(NC(=O)c4ccc(F)cc4C(F)(F)F)c3Cl)CC2=O)CCO1` (relative stereo) [Example 80, N-(2-Chloro-3-{(4S)-2-imino-4-methyl-1-[(2R*,4R*)-2-methyl-tetrahydropyran-4-yl]-6-oxo-hexahydropyrimidin-4-yl}phenyl)-4-fluoro-2-(trifluoromethyl)-benzamide trifluoroacetic acid salt] gave an IC50 of 61 nM. For `C[C@@H]1C[C@H](N2C(=N)N[C@](C)(c3cccc(NC(=O)c4ccccc4Cl)c3Cl)CC2=O)CCO1` (relative stereo) [Example 12, 2-Chloro-N-(2-chloro-3-{(4S)-2-imino-4-methyl-1-[(2R*,4R*)-2-methyltetrahydropyran-4-yl]-6-oxo-hexahydropyrimidin-4-yl}phenyl)-benzamide hydrochloride], the IC50 was 23 nM. Compound `C[C@@H]1CC(N2C(=N)N[C@](C)(c3cccc(NC(=O)c4cccn5nnnc45)c3Cl)CC2=O)CCO1` (relative stereo) [Example 29, N-(2-Chloro-3-{(4S)-2-imino-4-methyl-1-[(2R*,4R*)-2-methyl-tetrahydropyran-4-yl]-6-oxo-hexahydropyrimidin-4-yl}phenyl)-tetrazolo[1,5-a] pyridine-8-carboxamide trifluoroacetic acid salt] has an IC50 of 23 nM. In the case of `C[C@@H]1C[C@H](N2C(=N)N[C@](C)(c3cccc(NC(=O)c4cccnc4C(F)(F)F)c3Cl)CC2=O)CCO1` (relative stereo) [Example 61, N-(2-Chloro-3-{(4S)-2-imino-4-methyl-1-[(2R*,4R*)-2-methyl-tetrahydropyran-4-yl]-6-oxo-hexahydropyrimidin-4-yl}phenyl)-2-(trifluoromethyl)pyridine-3-carboxamide hydrochloride], the IC50 is reported as 442 nM. `C[C@@H]1C[C@H](N2C(=N)N[C@](C)(c3cccc(NC(=O)c4cnc5ccncc5c4)c3Cl)CC2=O)CCO1` (relative stereo) [Example 43, N-(2-Chloro-3-{(4S)-2-imino-4-methyl-1-[(2R*,4R*)-2-methyl-tetrahydropyran-4-yl]-6-oxo-hexahydropyrimidin-4-yl]phenyl)-1,6-naphthyridine-3-carboxamide trifluoroacetic acid salt] was tested, and the IC50 was 92 nM. `C[C@@H]1C[C@H](N2C(=N)N[C@](C)(c3cccc(NC(=O)c4cc(C#N)cn4C)c3Cl)CC2=O)CCO1` (relative stereo) [Example 113, N-(2-Chloro-3-{(4S)-2-imino-4-methyl-1-[(2R*,4R*)-2-methyl-tetrahydropyran-4-yl]-6-oxo-hexahydropyrimidin-4-yl}phenyl)-4-cyano-1-methylpyrrole-2-carboxamide trifluoroacetic acid salt] gave an IC50 of 5 nM. `C[C@@H]1C[C@H](N2C(=N)N[C@](C)(c3cccc(NC(=O)c4cc(C#N)ccn4)c3Cl)CC2=O)CCO1` (relative stereo) [Example 75, N-(2-Chloro-3-{(4S)-2-imino-4-methyl-1-[(2R*,4R*)-2-methyl-tetrahydropyran-4-yl]-6-oxo-hexahydropyrimidin-4-yl}phenyl)-4-cyanopyridine-2-carboxamide hydrochloride] was tested, and the IC50 was 20 nM. `C[C@@H]1C[C@H](N2C(=N)N[C@](C)(c3cccc(NC(=O)c4cc(Cl)cc(C#N)c4)c3Cl)CC2=O)CCO1` (relative stereo) [Example 77, 3-Chloro-N-(2-chloro-3-{(4S)-2-imino-4-methyl-1-[(2R*,4R*)-2-methyltetrahydropyran-4-yl]-6-oxo-hexahydropyrimidin-4-yl}phenyl)-5-cyanobenzamide hydrochloride] was tested, and the IC50 was 7 nM. Work on `C[C@@H]1C[C@H](N2C(=N)N[C@](C)(c3cccc(NC(=O)c4ncc5ccccn45)c3Cl)CC2=O)CCO1` (relative stereo) [Example 65, N-(2-Chloro-3-{(4S)-2-imino-4-methyl-1-[(2R*,4R*)-2-methyl-tetrahydropyran-4-yl]-6-oxo-hexahydropyrimidin-4-yl]phenyl)-imidazo[1,5-a]pyridine-3-carboxamide hydrochloride] yielded an IC50 of 51 nM. Work on `C[C@@H]1C[C@H](N2C(=N)N[C@](C)(c3cccc(NC(=O)c4cc(C#N)ccc4F)c3Cl)CC2=O)CCO1` (relative stereo) [Example 76, N-(2-Chloro-3-{(4S)-2-imino-4-methyl-1-{(2R*,4R*)-2-methyl-tetrahydropyran-4-yl]-6-oxo-hexahydropyrimidin-4-yl}phenyl)-5-cyano-2-fluorobenzamide hydrochloride] yielded an IC50 of 11 nM. `C[C@@H]1C[C@H](N2C(=N)N[C@](C)(c3cccc(NC(=O)c4ncc(F)cc4C(F)(F)F)c3Cl)CC2=O)CCO1` (relative stereo) [Example 94, N-(2-Chloro-3-{(4S)-2-imino-4-methyl-1-[(2R*,4R*)-2-methyl-tetrahydropyran-4-yl]-6-oxo-hexahydropyrimidin-4-yl}phenyl)-5-fluoro-3-(trifluoromethyl)-pyridine-2-carboxamide hydrochloride] gave an IC50 of 81 nM. `C[C@@H]1C[C@H](N2C(=N)N[C@](C)(c3cccc(NC(=O)c4ccc(C(F)(F)F)cc4)c3Cl)CC2=O)CCO1` (relative stereo) [Example 37, N-(2-Chloro-3-{(4S)-2-imino-4-methyl-1-[(2R*,4R*)-2-methyl-tetrahydropyran-4-yl]-6-oxo-hexahydropyrimidin-4-yl}phenyl)-4-(trifluoromethyl)benzamide trifluoroacetic acid salt] was tested, and the IC50 was 207 nM. `C[C@@H]1C[C@H](N2C(=N)N[C@](C)(c3cccc(NC(=O)c4ccc(F)c(F)c4)c3Cl)CC2=O)CCO1` (relative stereo) [Example 36, N-(2-Chloro-3-{(4S)-2-imino-4-methyl-1-[(2R*,4R*)-2-methyl-tetrahydropyran-4-yl]-6-oxo-hexahydropyrimidin-4-yl]phenyl)-3,4-difluorobenzamide trifluoroacetic acid salt] gave an IC50 of 33 nM. `C[C@@H]1C[C@H](N2C(=N)N[C@](C)(c3cccc(NC(=O)c4cc5ccccc5nn4)c3Cl)CC2=O)CCO1` (relative stereo) [Example 46, N-(2-Chloro-3-{(4S)-2-imino-4-methyl-1-[(2R*,4R*)-2-methyl-tetrahydropyran-4-yl]-6-oxo-hexahydropyrimidin-4-yl]phenyl)-cinnoline-3-carboxamide trifluoroacetic acid salt] was tested, and the IC50 was 41 nM. Work on `C[C@@H]1C[C@H](N2C(=N)N[C@](C)(c3cccc(NC(=O)c4cc(C(F)(F)F)cnn4)c3Cl)CC2=O)CCO1` (relative stereo) [Example 55, N-(2-Chloro-3-{(4S)-2-imino-4-methyl-1-[(2R*,4R*)-2-methyl-tetrahydropyran-4-yl]-6-oxo-hexahydropyrimidin-4-yl}phenyl)-5-(trifluoromethyl)pyridazine-3-carboxamide hydrochloride] yielded an IC50 of 53 nM. With `C[C@@H]1C[C@H](N2C(=N)N[C@](C)(c3cccc(NC(=O)c4ccc(C(F)(F)F)cn4)c3Cl)CC2=O)CCO1` (relative stereo) [Example 18, N-(2-Chloro-3-{(4S)-2-imino-4-methyl-1-[(2R*,4R*)-2-methyl-tetrahydropyran-4-yl]-6-oxo-hexahydropyrimidin-4-yl}phenyl)-5-(trifluoromethyl)pyridine-2-carboxamide hydrochloride] the IC50 was 46 nM. `C[C@@H]1C[C@H](N2C(=N)N[C@](C)(c3cccc(NC(=O)c4cncc(C(F)(F)F)c4)c3Cl)CC2=O)CCO1` (relative stereo) [Example 70, N-(2-Chloro-3-{(4S)-2-imino-4-methyl-1-[(2R*,4R*)-2-methyl-tetrahydropyran-4-yl]-6-oxo-hexahydropyrimidin-4-yl}phenyl)-5-(trifluoromethyl)pyridine-3-carboxamide hydrochloride] showed an IC50 of 36 nM. Compound `Cc1cncc(C(=O)Nc2cccc([C@]3(C)CC(=O)N([C@@H]4CCO[C@H](C)C4)C(=N)N3)c2Cl)n1` (relative stereo) [Example 66, N-(2-Chloro-3-{(4S)-2-imino-4-methyl-1-[(2R*,4R*)-2-methyl-tetrahydropyran-4-yl]-6-oxo-hexahydropyrimidin-4-yl}phenyl)-6-methylpyrazine-2-carboxamide hydrochloride] has an IC50 of 92 nM. `C[C@H]1C[C@@H](N2C(=N)N[C@](C)(c3cccc(NC(=O)c4cccc(C#N)c4)c3Cl)CC2=O)CCC1(F)F` (relative stereo) [Example 26, N-(2-Chloro-3-{(4S)-1-[(1S*,3S*)-4,4-difluoro-3-methylcyclohexyl]-2-imino-4-methyl-6-oxohexahydro-pyrimidin-4-yl]phenyl)-3-cyano-benzamide trifluoroacetic acid salt] showed an IC50 of 15 nM. For `C[C@@H]1C[C@H](N2C(=N)N[C@](C)(c3cccc(NC(=O)c4ccncc4)c3Cl)CC2=O)CCO1` (relative stereo) [Example 5, N-(2-Chloro-3-{(4S)-2-imino-4-methyl-1-[(2R*,4R*)-2-methyl-tetrahydropyran-4-yl]-6-oxo-hexahydropyrimidin-4-yl]phenyl)-pyridine-4-carboxamide hydrochloride], the IC50 was 285 nM.

Same assay, conditions: Plasmodium falciparum, Erythrocyte; P. falciparum 3D7 in human erythrocytes, 72 h incubation, SYBR green fluorescence; read-out: IC50
With `C[C@@H]1C[C@H](N2C(=N)N[C@](C)(c3cccc(NC(=O)c4c(F)cc(F)cc4F)c3Cl)CC2=O)CCO1` (relative stereo) [Example 101, N-(2-Chloro-3-{(4S)-2-imino-4-methyl-1-[(2,R*,4R*)-2-methyl-tetrahydropyran-4-yl]-6-oxo-hexahydropyrimidin-4-yl]phenyl)-2,4,6-trifluorobenzamide hydrochloride] the IC50 was 85 nM.
